Structures can show the parent of a compound that is named as a salt.
Target: T1, MASP-2 (CCP1-CCP2-SP) (Homo sapiens, UniProt O00187)
T1 construct: 15 μL of Enzyme MASP-2 (CCP1-CCP2-SP) in Assay Buffer
Assay: Enzymatic Assay for MASP-2
Format: biochemical
Conditions: fluorogenic substrate based on C2 cleavage site, room temperature, 20 mM HEPES pH 7.4
Procedure, shortened: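 Fluorogenic substrate modelled on the C2 cleavage site, run at room temperature in 20 mM HEPES pH 7.4, 140 mM NaCl, 0.1% Tween 20; compounds were added from DMSO serial dilutions before enzyme and substrate. Reactions ran 20 min and were stopped with 0.1 M acetic acid before fluorescence was read. % activity was normalised to DMSO-only and no-enzyme controls; IC50 was taken as Ki, with tight- or slow-binding inhibitors handled separately.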

T1 sequence (O00187 445-686 limits assumed): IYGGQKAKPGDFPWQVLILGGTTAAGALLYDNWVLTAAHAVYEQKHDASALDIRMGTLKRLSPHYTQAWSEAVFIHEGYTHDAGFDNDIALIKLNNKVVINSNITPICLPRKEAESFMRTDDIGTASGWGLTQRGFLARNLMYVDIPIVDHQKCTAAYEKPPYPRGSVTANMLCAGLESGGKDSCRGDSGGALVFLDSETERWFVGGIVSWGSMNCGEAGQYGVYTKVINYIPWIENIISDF
T1 sequence (O00187 298-444 partner limits assumed): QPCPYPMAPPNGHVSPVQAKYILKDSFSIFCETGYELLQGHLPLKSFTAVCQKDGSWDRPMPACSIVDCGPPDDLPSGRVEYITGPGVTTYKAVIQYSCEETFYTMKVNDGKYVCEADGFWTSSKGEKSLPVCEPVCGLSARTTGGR

Ki, < 500 nM:
CC(C)(O)c1cccc(-c2cnc(NCCc3ccccc3)c(=O)n2CC(=O)NCc2cc3cnccc3[nH]2)c1 [Compound 92, N-((1H-Pyrrolo[3,2-c]pyridin-2-yl)methyl)-2-(6-(3-(2-hydroxypropan-2-yl)phenyl)-2-oxo-3-(phenethylamino)pyrazin-1(2H)-yl)acetamide]
COC(=O)Cc1cccc(-c2cnc(NCCc3ccccc3)c(=O)n2CC(=O)NCc2cc3cnccc3[nH]2)c1 [Compound 93, Methyl 2-(3-(1-(2(((1H-pyrrolo[3,2-c]pyridin-2-yl)methyl)amino)-2-oxoethyl)-6-oxo-5-(phenethylamino)-1,6-dihydropyrazin-2-yl)phenyl)acetate trifluoroacetate]
O=C(O)Cc1cccc(-c2cnc(NCCc3ccccc3)c(=O)n2CC(=O)NCc2cc3cnccc3[nH]2)c1 [Compound 94, 2-(3-(1-(2-(((1H-Pyrrolo[3,2-c]Pyridin-2-yl)Methyl) Amino)-2-Oxoethyl)-6-Oxo-5-(Phenethylamino)-1,6-Dihydropyrazin-2-yl)Phenyl)Acetic Acid Trifluoroacetate]
CS(=O)(=O)NCc1cccc(-c2cnc(NCCc3ccccc3)c(=O)n2CC(=O)NCc2cc3cnccc3[nH]2)c1 [Compound 95, N-((1H-Pyrrolo[3,2-c]Pyridin-2-yl)Methyl)-2-(6-(3-(Methylsulfonamidomethyl)Phenyl)-2-Oxo-3-(Phenethylamino)Pyrazin-1(2H)-yl)Acetamide]
NCc1cccc(-c2cnc(NCCc3ccccc3)c(=O)n2CC(=O)NCc2cc3cnccc3[nH]2)c1 [Compound 96, N-((1H-Pyrrolo[3,2-c]Pyridin-2-yl)Methyl)-2-(6-(3-(Aminomethyl)Phenyl)-2-Oxo-3-(Phenethylamino)Pyrazin-1(2H)-yl)Acetamide]
O=C(Cn1c(-c2cccc(C(O)C(F)(F)F)c2)cnc(NCCc2ccccc2)c1=O)NCc1cc2cnccc2[nH]1 (stereo not drawn) [Compound 97, N-((1H-Pyrrolo[3,2-c]pyridin-2-yl)methyl)-2-(2-oxo-3-(phenethylamino)-6-(3-(2,2,2-trifluoro-1-hydroxyethyl)phenyl)pyrazin-1(2H)-yl)acetamide]
O=C(Cn1c(-c2cccc(C3(O)CC3)c2)cnc(NCCc2ccccc2)c1=O)NCc1cc2cnccc2[nH]1 [Compound 98, N-((1H-Pyrrolo[3,2-c]pyridin-2-yl)methyl)-2-(6-(3-(1-hydroxycyclopropyl)phenyl)-2-oxo-3-(phenethylamino)pyrazin-1(2H)-yl)acetamide]
O=C(Cn1c(-c2cccc(C3(O)COC3)c2)cnc(NCCc2ccccc2)c1=O)NCc1cc2cnccc2[nH]1 [Compound 99, N-((1H-Pyrrolo[3,2-c]pyridin-2-yl)methyl)-2-(6-(3-(3-hydroxyoxetan-3-yl)phenyl)-2-oxo-3-(phenethylamino)pyrazin-1(2H)-yl)acetamide]
CC(O)c1cccc(-c2cnc(NCCc3ccccc3)c(=O)n2CC(=O)NCc2cc3cnccc3[nH]2)c1 (stereo not drawn) [Compound 100, N-((1H-Pyrrolo[3,2-c]Pyridin-2-yl)Methyl)-2-(6-(3-(1-Hydroxyethyl)Phenyl)-2-Oxo-3-(Phenethylamino)Pyrazin-1(2H)-yl)Acetamide]
Cn1cc(-c2cnc(NCCc3ccccc3)c(=O)n2CC(=O)NCc2cc3cnccc3[nH]2)cn1 [Compound 101, N-((1H-Pyrrolo[3,2-c]pyridin-2-yl)methyl)-2-(6-(1-methyl-1H-pyrazol-4-yl)-2-oxo-3-(phenethylamino)pyrazin-1(2H)-yl)acetamide]
O=C(Cn1c(-c2cn[nH]c2)cnc(NCCc2ccccc2)c1=O)NCc1cc2cnccc2[nH]1 [Compound 102, N-((1H-Pyrrolo[3,2-c]pyridin-2-yl)methyl)-2-(2-oxo-3-(phenethylamino)-6-(1H-pyrazol-4-yl)pyrazin-1(2H)-yl)acetamide]
CC(C)n1cc(-c2cnc(NCCc3ccccc3)c(=O)n2CC(=O)NCc2cc3cnccc3[nH]2)cn1 [Compound 103, N-((1H-Pyrrolo[3,2-c]pyridin-2-yl)methyl)-2-(6-(1-isopropyl-1H-pyrazol-4-yl)-2-oxo-3-(phenethylamino)pyrazin-1(2H)-yl)acetamide]
Cc1nn(C)cc1-c1cnc(NCCc2ccccc2)c(=O)n1CC(=O)NCc1cc2cnccc2[nH]1 [Compound 104, N-((1H-Pyrrolo[3,2-c]pyridin-2-yl)methyl)-2-(6-(1,3-dimethyl-1H-pyrazol-4-yl)-2-oxo-3-(phenethylamino)pyrazin-1(2H)-yl)acetamide]
Cn1nccc1-c1cnc(NCCc2ccccc2)c(=O)n1CC(=O)NCc1cc2cnccc2[nH]1 [Compound 105, N-((1H-Pyrrolo[3,2-c]pyridin-2-yl)methyl)-2-(6-(1-methyl-1H-pyrazol-5-yl)-2-oxo-3-(phenethylamino)pyrazin-1(2H)-yl)acetamide]
O=C(Cn1c(-c2ccc(F)cc2)cnc(NCCc2ccccc2)c1=O)NCc1cc2cnccc2[nH]1 [Compound 106, N-((1H-Pyrrolo[3,2-c]pyridin-2-yl)methyl)-2-(6-(4-fluorophenyl)-2-oxo-3-(phenethylamino)pyrazin-1(2H)-yl)acetamide]
O=C(Cn1c(-c2cc(F)ccc2F)cnc(NCCc2ccccc2)c1=O)NCc1cc2cnccc2[nH]1 [Compound 107, N-((1H-Pyrrolo[3,2-c]pyridin-2-yl)methyl)-2-(6-(2,5-difluorophenyl)-2-oxo-3-(phenethylamino)pyrazin-1(2H)-yl)acetamide]
Cc1ccc(C)c(-c2cnc(NCCc3ccccc3)c(=O)n2CC(=O)NCc2cc3cnccc3[nH]2)c1 [Compound 108, N-((1H-Pyrrolo[3,2-c]pyridin-2-yl)methyl)-2-(6-(2,5-dimethylphenyl)-2-oxo-3-(phenethylamino)pyrazin-1(2H)-yl)acetamide]
O=C(Cn1c(Br)cnc(NCCc2ccccc2)c1=O)NCc1cc2cnccc2[nH]1 [Compound 109, N-((1H-Pyrrolo[3,2-c]Pyridin-2-yl)Methyl)-2-(6-Bromo-2-Oxo-3-(Phenethylamino)Pyrazin-1(2H)-yl)Acetamide]
O=C(Cn1c(-c2cnn(C3CCC3)c2)cnc(NCCc2ccccc2)c1=O)NCc1cc2cnccc2[nH]1 [Compound 110, N-((1H-Pyrrolo[3,2-c]pyridin-2-yl)methyl)-2-(6-(1-cyclobutyl-1H-pyrazol-4-yl)-2-oxo-3-(phenethylamino)pyrazin-1(2H)-yl)acetamide]
CC(C)(C)OC(=O)N1CC(n2cc(-c3cnc(NCCc4ccccc4)c(=O)n3CC(=O)NCc3cc4cnccc4[nH]3)cn2)C1 [Compound 111, tert-Butyl 3-(4-(1-(2(((1H-pyrrolo[3,2-c]pyridin-2-yl)methyl)amino)-2-oxoethyl)-6-oxo-5-(phenethylamino)-1,6-dihydropyrazin-2-yl)-1H-pyrazol-1-yl)azetidine-l-carboxylate]
O=C(Cn1c(-c2cnn(C3CNC3)c2)cnc(NCCc2ccccc2)c1=O)NCc1cc2cnccc2[nH]1 [Compound 112, N-((1H-Pyrrolo[3,2-c]Pyridin-2-yl)Methyl)-2-(6-(1-(Azetidin-3-yl)-1H-Pyrazol-4-yl)-2-Oxo-3-(Phenethylamino)Pyrazin-1(2H)-yl)Acetamide Hydrochloride]
